In the NIST ThermoML archive (doi:10.1021/je9010568):

Assays:
[1] = Liquid
[2] = φn = volume fraction of the nth substance listed; conditions: Liquid, φ1 = 0.75

OCCO [1,2-ethanediol]
[1]
Conditions | specific volume [m3/kg]
273.15 K, 100 kPa, Vibrating tube method | 0.0008871
274.14 K, 100 kPa, Vibrating tube method | 0.0008876
275.14 K, 100 kPa, Vibrating tube method | 0.0008882
276.15 K, 100 kPa, Vibrating tube method | 0.0008887
277.15 K, 100 kPa, Vibrating tube method | 0.0008893
278.15 K, 100 kPa, Vibrating tube method | 0.0008898
279.15 K, 100 kPa, Vibrating tube method | 0.0008904
280.15 K, 100 kPa, Vibrating tube method | 0.0008909
281.15 K, 100 kPa, Vibrating tube method | 0.0008915
282.15 K, 100 kPa, Vibrating tube method | 0.000892
283.15 K, 100 kPa, Vibrating tube method | 0.0008926
284.15 K, 100 kPa, Vibrating tube method | 0.0008931
285.15 K, 100 kPa, Vibrating tube method | 0.0008937
286.15 K, 100 kPa, Vibrating tube method | 0.0008942
287.15 K, 100 kPa, Vibrating tube method | 0.0008948
288.09 K, 99800 kPa, Bellows volumetry | 0.0008687
288.12 K, 348700 kPa, Bellows volumetry | 0.0008241
288.15 K, 100 kPa, Vibrating tube method | 0.0008954
288.15 K, 299700 kPa, Bellows volumetry | 0.0008313
288.15 K, 349400 kPa, Bellows volumetry | 0.0008238
288.16 K, 100 kPa, Vibrating tube method | 0.0008954
288.17 K, 150000 kPa, Bellows volumetry | 0.0008579
288.17 K, 248800 kPa, Bellows volumetry | 0.0008395
288.17 K, 298500 kPa, Bellows volumetry | 0.0008314
288.17 K, 350400 kPa, Bellows volumetry | 0.0008236
288.18 K, 48900 kPa, Bellows volumetry | 0.0008815
288.18 K, 99800 kPa, Bellows volumetry | 0.0008684
288.18 K, 149400 kPa, Bellows volumetry | 0.0008577
288.18 K, 198100 kPa, Bellows volumetry | 0.0008485
288.18 K, 299200 kPa, Bellows volumetry | 0.0008312
288.19 K, 49200 kPa, Bellows volumetry | 0.0008811
288.19 K, 249300 kPa, Bellows volumetry | 0.0008392
288.2 K, 248600 kPa, Bellows volumetry | 0.0008396
288.21 K, 100 kPa, Vibrating tube method | 0.0008954
288.21 K, 49000 kPa, Bellows volumetry | 0.0008815
288.21 K, 199700 kPa, Bellows volumetry | 0.0008479
288.22 K, 100 kPa, Vibrating tube method | 0.0008954
288.23 K, 149400 kPa, Bellows volumetry | 0.000858
288.24 K, 99600 kPa, Bellows volumetry | 0.0008688
288.24 K, 199700 kPa, Bellows volumetry | 0.0008482
289.15 K, 100 kPa, Vibrating tube method | 0.0008959
290.15 K, 100 kPa, Vibrating tube method | 0.0008965
291.15 K, 100 kPa, Vibrating tube method | 0.000897
292.15 K, 100 kPa, Vibrating tube method | 0.0008976
293.15 K, 100 kPa, Vibrating tube method | 0.0008982
294.15 K, 100 kPa, Vibrating tube method | 0.0008987
295.15 K, 100 kPa, Vibrating tube method | 0.0008993
296.15 K, 100 kPa, Vibrating tube method | 0.0008998
297.15 K, 100 kPa, Vibrating tube method | 0.0009004
298.16 K, 100 kPa, Vibrating tube method | 0.000901
299.16 K, 100 kPa, Vibrating tube method | 0.0009016
300.16 K, 100 kPa, Vibrating tube method | 0.0009021
301.16 K, 100 kPa, Vibrating tube method | 0.0009027
302.16 K, 100 kPa, Vibrating tube method | 0.0009033
303.15 K, 100 kPa, Vibrating tube method | 0.0009038
304.16 K, 100 kPa, Vibrating tube method | 0.0009044
305.15 K, 100 kPa, Vibrating tube method | 0.000905
306.15 K, 100 kPa, Vibrating tube method | 0.0009056
307.15 K, 100 kPa, Vibrating tube method | 0.0009061
308.15 K, 100 kPa, Vibrating tube method | 0.0009067
309.15 K, 100 kPa, Vibrating tube method | 0.0009073
310.15 K, 100 kPa, Vibrating tube method | 0.0009079
311.15 K, 100 kPa, Vibrating tube method | 0.0009085
312.15 K, 100 kPa, Vibrating tube method | 0.0009091
313.15 K, 100 kPa, Vibrating tube method | 0.0009097

OCCO [1,2-ethanediol] + O
[2]
Conditions | specific volume [m3/kg]
273.15 K, 100 kPa, Vibrating tube method | 0.0009024
274.15 K, 100 kPa, Vibrating tube method | 0.0009029
275.15 K, 100 kPa, Vibrating tube method | 0.0009035
276.15 K, 100 kPa, Vibrating tube method | 0.000904
277.15 K, 100 kPa, Vibrating tube method | 0.0009045
278.15 K, 100 kPa, Vibrating tube method | 0.0009051
279.15 K, 100 kPa, Vibrating tube method | 0.0009056
280.15 K, 100 kPa, Vibrating tube method | 0.0009061
281.15 K, 100 kPa, Vibrating tube method | 0.0009067
282.15 K, 100 kPa, Vibrating tube method | 0.0009072
283.16 K, 100 kPa, Vibrating tube method | 0.0009078
284.16 K, 100 kPa, Vibrating tube method | 0.0009083
285.16 K, 100 kPa, Vibrating tube method | 0.0009088
286.16 K, 100 kPa, Vibrating tube method | 0.0009094
287.16 K, 100 kPa, Vibrating tube method | 0.0009099
288.09 K, 100 kPa, Vibrating tube method | 0.0009104
288.09 K, 148600 kPa, Bellows volumetry | 0.0008753
288.1 K, 98200 kPa, Bellows volumetry | 0.0008859
288.11 K, 100 kPa, Vibrating tube method | 0.0009104
288.11 K, 49700 kPa, Bellows volumetry | 0.0008965
288.12 K, 98200 kPa, Bellows volumetry | 0.0008844
288.13 K, 100 kPa, Vibrating tube method | 0.0009105
288.13 K, 49400 kPa, Bellows volumetry | 0.0008974
288.13 K, 349300 kPa, Bellows volumetry | 0.0008385
288.14 K, 149800 kPa, Bellows volumetry | 0.0008734
288.14 K, 199000 kPa, Bellows volumetry | 0.0008635
288.15 K, 199100 kPa, Bellows volumetry | 0.0008654
288.16 K, 100 kPa, Vibrating tube method | 0.0009105
288.16 K, 248700 kPa, Bellows volumetry | 0.0008558
288.17 K, 299900 kPa, Bellows volumetry | 0.0008461
288.19 K, 250600 kPa, Bellows volumetry | 0.0008544
288.29 K, 299600 kPa, Bellows volumetry | 0.0008463
288.31 K, 199200 kPa, Bellows volumetry | 0.0008639
288.31 K, 350200 kPa, Bellows volumetry | 0.0008386
288.32 K, 251000 kPa, Bellows volumetry | 0.0008545
288.33 K, 49300 kPa, Bellows volumetry | 0.0008968
288.33 K, 149300 kPa, Bellows volumetry | 0.0008737
288.33 K, 300300 kPa, Bellows volumetry | 0.0008464
288.33 K, 348300 kPa, Bellows volumetry | 0.0008391
288.36 K, 100900 kPa, Bellows volumetry | 0.0008842
289.16 K, 100 kPa, Vibrating tube method | 0.000911
290.16 K, 100 kPa, Vibrating tube method | 0.0009116
291.16 K, 100 kPa, Vibrating tube method | 0.0009121
292.15 K, 100 kPa, Vibrating tube method | 0.0009127
293.15 K, 100 kPa, Vibrating tube method | 0.0009132
294.15 K, 100 kPa, Vibrating tube method | 0.0009138
295.16 K, 100 kPa, Vibrating tube method | 0.0009143
296.16 K, 100 kPa, Vibrating tube method | 0.0009149
297.15 K, 100 kPa, Vibrating tube method | 0.0009155
298.15 K, 100 kPa, Vibrating tube method | 0.000916
299.15 K, 100 kPa, Vibrating tube method | 0.0009166
300.16 K, 100 kPa, Vibrating tube method | 0.0009172
301.16 K, 100 kPa, Vibrating tube method | 0.0009177
302.16 K, 100 kPa, Vibrating tube method | 0.0009183
303.16 K, 100 kPa, Vibrating tube method | 0.0009189
304.16 K, 100 kPa, Vibrating tube method | 0.0009195
305.16 K, 100 kPa, Vibrating tube method | 0.00092
306.16 K, 100 kPa, Vibrating tube method | 0.0009206
307.15 K, 100 kPa, Vibrating tube method | 0.0009212
308.15 K, 100 kPa, Vibrating tube method | 0.0009218
309.15 K, 100 kPa, Vibrating tube method | 0.0009223
310.15 K, 100 kPa, Vibrating tube method | 0.0009229
311.15 K, 100 kPa, Vibrating tube method | 0.0009235
312.15 K, 100 kPa, Vibrating tube method | 0.0009241
313.15 K, 100 kPa, Vibrating tube method | 0.0009247
